Values after ≈ are worked out from the molar mass of the structure shown.
Assays:
[1] = Dissociation constant, pKa of compound; type: physicochemical
[2] = target: T1, Histone acetyltransferase KAT6A (Homo sapiens, UniProt Q92794); assay: Inhibition of his-tagged human recombinant KAT6A (194 to 810 residues) expressed in baculovirus-infected Sf9 insect cells using H4-derived peptide as substrate incubated for 40 mins in presence of AcCoA by TR-FRET assay
[3] = target: T1, Histone acetyltransferase KAT6A; assay: Inhibition of KAT6A in human MVLN cells assessed as decrease in estrogen receptor level incubated for 24 hrs by gene reporter assay; type: cell-based
[4] = target: Histone acetyltransferase KAT6B (Homo sapiens, UniProt Q8WYB5); assay: Inhibition of C-terminal human recombinant KAT6B (431 to end residues) expressed in baculovirus-infected Sf9 insect cells using H4-derived peptide as substrate incubated for 30 mins in presence of AcCoA by TR-FRET assay
Histone acetyltransferase KAT6B, sequence (Q8WYB5 whole entry): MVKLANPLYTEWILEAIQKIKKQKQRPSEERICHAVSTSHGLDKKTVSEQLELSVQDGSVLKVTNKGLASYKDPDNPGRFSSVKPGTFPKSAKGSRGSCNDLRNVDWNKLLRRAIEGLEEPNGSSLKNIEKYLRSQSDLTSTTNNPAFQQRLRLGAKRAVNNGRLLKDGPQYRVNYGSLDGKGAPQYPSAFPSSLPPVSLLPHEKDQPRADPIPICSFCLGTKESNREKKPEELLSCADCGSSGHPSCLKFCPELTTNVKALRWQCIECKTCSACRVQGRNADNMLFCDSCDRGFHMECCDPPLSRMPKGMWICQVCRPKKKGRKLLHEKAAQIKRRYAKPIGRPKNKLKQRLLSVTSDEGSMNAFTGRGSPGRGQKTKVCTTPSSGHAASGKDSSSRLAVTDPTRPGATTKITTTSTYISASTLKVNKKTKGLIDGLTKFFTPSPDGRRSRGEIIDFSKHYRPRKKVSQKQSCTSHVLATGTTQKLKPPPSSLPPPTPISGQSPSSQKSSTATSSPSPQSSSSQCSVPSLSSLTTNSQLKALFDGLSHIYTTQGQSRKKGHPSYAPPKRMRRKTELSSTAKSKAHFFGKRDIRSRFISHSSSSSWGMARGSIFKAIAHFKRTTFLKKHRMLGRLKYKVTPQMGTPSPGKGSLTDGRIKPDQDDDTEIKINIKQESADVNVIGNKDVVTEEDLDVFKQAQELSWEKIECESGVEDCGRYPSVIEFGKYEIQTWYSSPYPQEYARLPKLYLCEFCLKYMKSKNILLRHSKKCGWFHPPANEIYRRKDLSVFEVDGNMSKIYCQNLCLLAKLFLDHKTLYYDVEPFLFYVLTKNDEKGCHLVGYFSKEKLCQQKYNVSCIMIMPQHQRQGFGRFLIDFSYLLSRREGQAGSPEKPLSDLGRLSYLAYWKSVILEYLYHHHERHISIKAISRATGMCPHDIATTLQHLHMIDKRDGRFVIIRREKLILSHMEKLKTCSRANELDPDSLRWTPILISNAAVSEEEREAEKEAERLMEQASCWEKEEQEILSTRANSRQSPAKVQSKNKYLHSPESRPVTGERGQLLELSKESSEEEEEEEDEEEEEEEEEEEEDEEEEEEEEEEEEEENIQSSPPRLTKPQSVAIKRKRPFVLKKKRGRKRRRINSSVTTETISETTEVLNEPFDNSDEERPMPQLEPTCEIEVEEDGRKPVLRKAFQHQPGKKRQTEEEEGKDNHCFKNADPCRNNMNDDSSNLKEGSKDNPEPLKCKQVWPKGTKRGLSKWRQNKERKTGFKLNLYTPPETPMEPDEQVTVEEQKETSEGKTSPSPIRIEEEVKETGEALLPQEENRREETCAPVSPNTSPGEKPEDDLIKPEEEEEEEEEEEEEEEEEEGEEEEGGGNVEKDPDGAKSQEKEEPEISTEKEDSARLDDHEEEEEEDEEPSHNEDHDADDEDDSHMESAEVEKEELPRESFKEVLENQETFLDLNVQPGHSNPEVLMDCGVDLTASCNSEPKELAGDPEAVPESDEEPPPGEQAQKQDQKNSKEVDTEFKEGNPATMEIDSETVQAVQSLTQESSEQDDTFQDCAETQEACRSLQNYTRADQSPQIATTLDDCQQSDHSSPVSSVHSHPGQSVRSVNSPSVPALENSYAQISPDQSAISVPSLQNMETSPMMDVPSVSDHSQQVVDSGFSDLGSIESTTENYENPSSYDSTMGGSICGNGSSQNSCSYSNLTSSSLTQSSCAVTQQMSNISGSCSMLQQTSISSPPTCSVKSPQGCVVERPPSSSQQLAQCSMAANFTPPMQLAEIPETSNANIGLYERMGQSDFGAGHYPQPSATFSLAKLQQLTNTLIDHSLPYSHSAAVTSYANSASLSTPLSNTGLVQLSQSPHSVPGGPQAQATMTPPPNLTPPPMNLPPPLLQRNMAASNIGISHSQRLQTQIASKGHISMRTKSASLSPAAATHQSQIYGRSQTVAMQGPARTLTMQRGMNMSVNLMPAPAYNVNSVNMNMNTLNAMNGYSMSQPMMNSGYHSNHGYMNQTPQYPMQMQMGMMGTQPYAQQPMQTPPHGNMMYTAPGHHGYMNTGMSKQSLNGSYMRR

[5] = Efflux ratio of apparent permeability across basolateral to apical side over apical to basolateral side in human Caco-2 cells incubated for 2 hrs by LC-MS/MS analysis; type: ADME, cell-based; conditions: caco-2, 2 h
[6] = Apparent permeability across apical to basolateral side in human Caco-2 cells at 2 uM pH 7.2 measured for 2 hrs by LC-MS/MS analysis; type: ADME, cell-based
[7] = Aqueous solubility of compound in PBS at pH 6.5 incubated for 24 hrs by HPLC-UV analysis; type: physicochemical
[8] = Lipophilicity, logD of the compound at pH 7.5; type: physicochemical; conditions: buffer

T1 sequence (Q92794 whole entry, the tested form may be a part): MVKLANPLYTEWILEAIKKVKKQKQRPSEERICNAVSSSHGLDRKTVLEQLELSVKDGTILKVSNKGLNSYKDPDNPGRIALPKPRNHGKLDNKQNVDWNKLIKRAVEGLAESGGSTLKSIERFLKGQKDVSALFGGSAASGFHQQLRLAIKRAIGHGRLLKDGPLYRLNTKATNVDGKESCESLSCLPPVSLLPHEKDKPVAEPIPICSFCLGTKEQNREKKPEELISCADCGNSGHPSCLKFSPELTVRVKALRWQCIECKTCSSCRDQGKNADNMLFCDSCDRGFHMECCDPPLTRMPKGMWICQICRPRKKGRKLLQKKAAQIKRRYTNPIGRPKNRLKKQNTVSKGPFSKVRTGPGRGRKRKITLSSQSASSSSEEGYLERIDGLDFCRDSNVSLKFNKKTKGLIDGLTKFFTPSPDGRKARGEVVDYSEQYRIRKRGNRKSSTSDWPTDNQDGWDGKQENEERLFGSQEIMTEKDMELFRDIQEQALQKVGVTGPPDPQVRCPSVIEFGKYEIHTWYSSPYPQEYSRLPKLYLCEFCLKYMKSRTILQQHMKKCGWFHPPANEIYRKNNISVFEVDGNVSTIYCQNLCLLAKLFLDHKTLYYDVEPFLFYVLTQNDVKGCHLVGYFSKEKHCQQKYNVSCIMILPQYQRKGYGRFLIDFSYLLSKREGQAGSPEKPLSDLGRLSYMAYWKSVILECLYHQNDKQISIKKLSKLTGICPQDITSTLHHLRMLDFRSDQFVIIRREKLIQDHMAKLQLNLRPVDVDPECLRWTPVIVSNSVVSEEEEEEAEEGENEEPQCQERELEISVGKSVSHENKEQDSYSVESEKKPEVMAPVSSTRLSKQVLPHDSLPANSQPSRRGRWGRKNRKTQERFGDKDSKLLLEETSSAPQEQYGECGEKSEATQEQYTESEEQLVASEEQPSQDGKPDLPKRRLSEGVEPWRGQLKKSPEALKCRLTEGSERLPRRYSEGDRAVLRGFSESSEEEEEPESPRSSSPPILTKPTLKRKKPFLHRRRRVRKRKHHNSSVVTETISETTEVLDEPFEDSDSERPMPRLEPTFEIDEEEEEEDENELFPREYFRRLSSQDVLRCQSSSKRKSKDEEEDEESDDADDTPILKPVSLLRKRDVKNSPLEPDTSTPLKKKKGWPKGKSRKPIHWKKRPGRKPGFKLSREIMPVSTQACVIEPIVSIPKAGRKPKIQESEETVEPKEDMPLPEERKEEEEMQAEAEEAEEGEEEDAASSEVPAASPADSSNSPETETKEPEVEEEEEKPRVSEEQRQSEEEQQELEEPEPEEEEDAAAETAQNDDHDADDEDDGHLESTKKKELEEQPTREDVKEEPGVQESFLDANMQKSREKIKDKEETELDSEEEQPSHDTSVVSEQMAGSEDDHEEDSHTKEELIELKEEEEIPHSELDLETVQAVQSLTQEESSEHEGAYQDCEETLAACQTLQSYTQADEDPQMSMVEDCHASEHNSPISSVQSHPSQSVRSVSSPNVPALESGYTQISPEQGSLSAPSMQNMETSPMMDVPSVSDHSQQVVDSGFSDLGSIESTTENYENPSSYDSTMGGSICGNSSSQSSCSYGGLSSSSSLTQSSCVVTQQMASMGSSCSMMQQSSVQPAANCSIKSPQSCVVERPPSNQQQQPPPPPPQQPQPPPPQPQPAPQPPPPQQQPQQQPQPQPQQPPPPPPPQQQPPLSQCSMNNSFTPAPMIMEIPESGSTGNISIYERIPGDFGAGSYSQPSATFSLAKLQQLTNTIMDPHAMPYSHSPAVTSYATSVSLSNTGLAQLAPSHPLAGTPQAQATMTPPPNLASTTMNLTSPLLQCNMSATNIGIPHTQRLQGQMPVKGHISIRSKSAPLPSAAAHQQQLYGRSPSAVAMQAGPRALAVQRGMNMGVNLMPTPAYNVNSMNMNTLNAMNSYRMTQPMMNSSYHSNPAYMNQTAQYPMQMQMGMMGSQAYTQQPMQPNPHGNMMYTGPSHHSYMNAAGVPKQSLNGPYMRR

SMILES	IC50 [2] [nM]	IC50 [3] [nM]	further results
CCOc1cccc(-c2cccc(Cl)c2)c1S(=O)(=O)NC(=O)c1cc2c(C)cc(OC)cc2o1	11	3680	pKa [1]: 6
O=C(NS(=O)(=O)c1ccccc1-c1ccccc1)c1cc2ccccc2o1	2160	> 20000	IC50 [4]: 10500 nM
CCCOc1ccccc1S(=O)(=O)NC(=O)c1cc2c(C)cc(OC)cc2o1	19	6540	pKa [1]: 4
CCCOc1ccc2cc(C(=O)NS(=O)(=O)c3ccccc3-c3ccccc3)oc2c1	1540	8680	
COc1ccc2cc(C(=O)NS(=O)(=O)c3ccccc3-c3ccccc3)oc2c1	260	7620	IC50 [4]: 368 nM
O=C(NS(=O)(=O)c1ccccc1-c1ccccc1)c1cc2ccc(C(F)F)cc2o1		> 20000	
Cc1ccc2cc(C(=O)NS(=O)(=O)c3ccccc3-c3ccccc3)oc2c1		> 11000	
C=C(C)c1ccc2cc(C(=O)NS(=O)(=O)c3ccccc3-c3ccccc3)oc2c1		1320	
COc1cc(C)c2cc(C(=O)NS(=O)(=O)c3ccc(C)cc3-c3ccccc3)oc2c1	10	> 20000	pKa [1]: 4.7
COc1ccc2oc(C(=O)NS(=O)(=O)c3ccccc3-c3ccccc3)cc2c1	1800		IC50 [4]: 9020 nM
O=C(NS(=O)(=O)c1ccccc1-c1ccccc1)c1cc2ccc(C3CC3)cc2o1		1020	
COc1cc(C)c2cc(C(=O)NS(=O)(=O)c3ccc(Cl)cc3)oc2c1	75	2280	pKa [1]: 2.9
COc1cc(C)c2cc(C(=O)NS(=O)(=O)c3ccccc3-c3ccccc3)oc2c1	24	> 4600	pKa [1]: 4.3; Ratio [5]: 1; Papp ([6]; caco-2, pH 7.2, 2 h, 2 µM): 6.4 ×10⁻⁶ cm/s; IC50 [4]: 76 nM
Cc1cc(Br)cc2oc(C(=O)NS(=O)(=O)c3ccccc3-c3ccccc3)cc12	66	> 20000	
CCCN(C)c1ccc2cc(C(=O)NS(=O)(=O)c3ccccc3-c3ccccc3)oc2c1	751	> 20000	
CC(C)c1ccc2cc(C(=O)NS(=O)(=O)c3ccccc3-c3ccccc3)oc2c1		3020	
Cc1cc(C)c2cc(C(=O)NS(=O)(=O)c3ccccc3-c3ccccc3)oc2c1		2500	
COc1cccc2cc(C(=O)NS(=O)(=O)c3ccccc3-c3ccccc3)oc12	142	4520	IC50 [4]: 351 nM

SMILES	IC50 [2] [nM]	IC50 [3] [nM]	further results
COc1cccc2oc(C(=O)NS(=O)(=O)c3ccccc3-c3ccccc3)cc12	1350		IC50 [4]: 3140 nM
CCOc1ccc2cc(C(=O)NS(=O)(=O)c3ccccc3-c3ccccc3)oc2c1	554	9750	
Cc1cc(N(C)C)cc2oc(C(=O)NS(=O)(=O)c3ccccc3-c3ccccc3)cc12		> 20000	
COCCN(C)c1ccc2cc(C(=O)NS(=O)(=O)c3ccccc3-c3ccccc3)oc2c1	1350	> 15500	
O=C(NS(=O)(=O)c1ccccc1-c1ccccc1)c1cc2ccc(N3CCOCC3)cc2o1	> 20000	> 20000	
O=C(NS(=O)(=O)c1ccccc1-c1ccccc1)c1cc2c(F)cc(C3CC3)cc2o1	173	1000	
CN(C)c1cc(F)c2cc(C(=O)NS(=O)(=O)c3ccccc3-c3ccccc3)oc2c1		60	solubility at 24 h [7]: 264 µg/mL (≈ 602 µM); logD [8]: 2
Cc1cccc2oc(C(=O)NS(=O)(=O)c3ccccc3-c3ccccc3)cc12	454		IC50 [4]: 2570 nM
CNc1ccc2cc(C(=O)NS(=O)(=O)c3ccccc3-c3ccccc3)oc2c1		2580	
COCCc1ccc2cc(C(=O)NS(=O)(=O)c3ccccc3-c3ccccc3)oc2c1		> 15600	
O=C(NS(=O)(=O)c1ccccc1-c1ccccc1)c1cc2ccc(OCCO)cc2o1	1370	> 20000	
CCOc1ccccc1S(=O)(=O)NC(=O)c1cc2c(OC)cc(OC)cc2o1			Papp A→B at 2 h, 2 µM ([6]; Caco-2, pH 7.2): 2.8 ×10⁻⁶ cm/s
COc1cc(C)c2cc(C(=O)NS(=O)(=O)c3ccc(-c4ccccc4)cc3)oc2c1	46	> 17600	pKa [1]: 5.8
COc1cc(C)c2cc(C(=O)NS(=O)(=O)c3cccc4ccc(C)nc34)oc2c1	13	2570	
CCOc1cccc(-c2ccccc2)c1S(=O)(=O)NC(=O)c1cc2c(C)cc(OC)cc2o1	32	1400	pKa [1]: 5.6
COc1cc(C)c2cc(C(=O)NS(=O)(=O)c3ccccc3OC)oc2c1	46	13200	pKa [1]: 3.2
COc1cc(C)c2cc(C(=O)NS(=O)(=O)c3ccc(C)cc3)oc2c1	107	18200	pKa [1]: 3
COc1cc(C)cc2oc(C(=O)NS(=O)(=O)c3ccccc3-c3ccccc3)cc12		10000	
